Measurements reported in article PMC9318802, “Optimization of 2-Aminoquinazolin-4-(3H)-one Derivatives as Potent Inhibitors of SARS-CoV-2: Improved Synthesis and Pharmacokinetic Properties” (Pharmaceuticals, 2022).
“Also recorded” adds a separate entry of the source. Like-named read-outs stand apart in the source and are kept apart here.

What was measured:
[1] = test system: SARS-CoV-2; assay: Anti-SARS-CoV-2 immunofluorescence assay in Vero cells; type: cell-based; conditions: for IC50: Severe acute respiratory syndrome coronavirus 2, immunofluorescence, at least two independent experiments
[2] = in vitro; conditions: African green monkey
[3] = test system: Vero cells; conditions: Vero cell assay, previously reported; cited from earlier work
[4] = rats, oral, 10 mg/kg; ref previously reported; cited from earlier work
[5] = test system: SARS-CoV-2 spike pseudo-typed lentivirus; assay: microbe, parasite or virus in culture; type: cell-based; conditions: Severe acute respiratory syndrome coronavirus 2, NCI-H1299, 48 h; read-out: IC50 (SARS-CoV-2 spike pseudo-typed virus entry)
[6] = In vivo oral pharmacokinetics in Sprague Dawley rats; conditions: rat, blood, male Sprague Dawley rats, 10 mg/kg; for Cmax / Tmax / half-life: n = 3; for AUC(0-t): n = 3, read-out: AUC24h
Description: Compounds 2a–c were selected for in vivo pharmacokinetic studies based on their ClogP and selectivity index (SI) values. Each compound was administered orally at 10 mg/kg to three Sprague Dawley rats (Figure 2). […] The lipophilic properties and the small size of the fluorine moieties likely enhance the absorption of compound 2b.
Figure 2 Pharmacokinetic evaluation of compounds 1a, 2a, 2b, and 2c. Each compound was orally administrated to male Sprague Dawley rats (n = 3) at 10 mg/kg. TEXT PRINTED IN THE PICTURE: 1a: Tmax (h): 2.50; Cmax (μg/mL): 0.87; T1/2 (h): 5.65; AUC24h (μg·h/mL): 6.62 | 2a: Tmax (h): 4.67; Cmax (μg/mL): 1.85; T1/2 (h): 4.95; AUC24h (μg·h/mL): 24.31 | 2b: Tmax (h): 4.00; Cmax (μg/mL): 5.56; T1/2 (h): 1.96; AUC24h (μg·h/mL): 41.57 | 2c: Tmax (h): 3.33; Cmax (μg/mL): 1.96; T1/2 (h): 6.69; AUC24h (μg·h/mL): 10.77

[7] = target: hERG K+ channel (Homo sapiens, UniProt Q12809); assay: cell-based
[8] = EZ-Cytox cell viability assay, NIH 3T3; conditions: mouse, Cytotoxicity (CC50) NIH 3T3, EZ-Cytox
[9] = test system: NIH 3T3, mouse embryonic fibroblast cells; assay: EZ-Cytox cell viability assay, NIH 3T3; conditions: read-out: Cytotoxicity (CC50) NIH 3T3; EZ-Cytox, 24 h
[10] = In vivo single-dose toxicity in male Sprague Dawley rats; design: species or system rat; conditions: for Clinical signs: animals with liquid feces: n = 4, recovered by day 4; for Body weight change: recovered on day 14
Description: After single administration using 55% PEG200 in distilled water as a vehicle, each group of four rats was monitored for 15 days. […] Therefore, the approximate lethal dose of compound 2b in this study was estimated to be more than 500 mg/kg.
Figure 3 Body weight changes in male rats (n = 4) treated with compound 2b in a single-dose toxicity study. ** p < 0.01, compared to the control at the same time point (Dunnett’s test).

[11] = in vitro; conditions: Chinese hamster, Cytotoxicity (CC50) CHO-K1, EZ-Cytox, 24 h
[12] = EZ-Cytox cell viability assay, L929; conditions: mouse, Cytotoxicity (CC50) L929, EZ-Cytox
[13] = EZ-Cytox cell viability assay, HFL-1; conditions: human, Cytotoxicity (CC50) HFL-1, EZ-Cytox
[14] = Microsomal stability assay, rat liver microsomes; conditions: percentage of original compound remaining after 30 min incubation, NADPH
[15] = Microsomal stability assay, human liver microsomes; conditions: percentage of original compound remaining after 30 min incubation, NADPH
[16] = Cytotoxicity (CC50) in uninfected Vero cells; conditions: African green monkey
[17] = design: method as in PMID 34914868, PMID 34914869; conditions: cited from earlier work
[18] = CC50/IC50 for inhibiting SARS-CoV-2 infection, Vero cells

Sequence of hERG K+ channel (Q12809 whole entry): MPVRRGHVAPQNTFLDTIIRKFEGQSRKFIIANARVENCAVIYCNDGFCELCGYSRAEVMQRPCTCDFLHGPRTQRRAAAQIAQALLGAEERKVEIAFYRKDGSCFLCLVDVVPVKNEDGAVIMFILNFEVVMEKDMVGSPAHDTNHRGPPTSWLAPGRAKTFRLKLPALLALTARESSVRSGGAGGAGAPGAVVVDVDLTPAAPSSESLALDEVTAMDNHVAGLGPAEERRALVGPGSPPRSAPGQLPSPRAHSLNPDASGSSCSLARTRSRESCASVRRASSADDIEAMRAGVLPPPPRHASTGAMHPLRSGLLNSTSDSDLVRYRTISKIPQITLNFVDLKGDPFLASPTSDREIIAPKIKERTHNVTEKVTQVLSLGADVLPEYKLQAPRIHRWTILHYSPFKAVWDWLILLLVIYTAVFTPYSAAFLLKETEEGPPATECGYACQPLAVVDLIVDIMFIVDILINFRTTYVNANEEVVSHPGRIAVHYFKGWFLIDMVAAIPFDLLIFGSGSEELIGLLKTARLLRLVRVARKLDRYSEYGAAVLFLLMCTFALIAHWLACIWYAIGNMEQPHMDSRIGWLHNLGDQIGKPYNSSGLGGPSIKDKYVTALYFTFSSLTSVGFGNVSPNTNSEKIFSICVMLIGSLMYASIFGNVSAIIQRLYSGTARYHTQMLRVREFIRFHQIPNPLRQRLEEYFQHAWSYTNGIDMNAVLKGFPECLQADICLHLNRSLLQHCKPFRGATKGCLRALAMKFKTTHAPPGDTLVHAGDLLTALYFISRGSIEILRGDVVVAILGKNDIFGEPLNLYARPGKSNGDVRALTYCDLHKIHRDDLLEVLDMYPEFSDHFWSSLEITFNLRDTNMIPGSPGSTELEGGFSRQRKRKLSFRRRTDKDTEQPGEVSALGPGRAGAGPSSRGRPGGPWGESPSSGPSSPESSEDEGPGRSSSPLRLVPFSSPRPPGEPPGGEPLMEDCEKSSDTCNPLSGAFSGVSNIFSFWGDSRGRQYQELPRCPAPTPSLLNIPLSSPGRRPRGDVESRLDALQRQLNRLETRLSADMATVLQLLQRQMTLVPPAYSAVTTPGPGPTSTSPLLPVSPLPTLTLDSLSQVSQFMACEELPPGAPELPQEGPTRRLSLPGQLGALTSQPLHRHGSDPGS

Question: With `O=C(C(O)OCc1ccccc1)N(c1cc(Cl)cc(Cl)c1)c1nc2cc(Cl)ccc2c(=O)[nH]1` (stereo not shown) as the compound, how does the melting point read?
Answer: 282 to 284 °C

Question: With `O=c1[nH]c(Nc2cc(Cl)cc(Cl)c2)nc2cc(Cl)ccc12` [Compound 1a, 7-Chloro-2-((3,5-dichlorophenyl)amino)quinazolin-4(3H)-one] as the compound, how does the IC50 ([1]; Vero cells) read?
Answer: 0.23 µM

Question: And the CC50 at 24 h [2]?
Answer: > 25 µM

Question: What about the Cytotoxicity [3] of the same compound?
Answer: no cytotoxicity

Question: What about the AUC24h [4] of the same compound?
Answer: 6620 ng·h/mL

Question: What about the Cmax [4] of the same compound?
Answer: 870 ng/mL

Question: With `O=c1[nH]c(Nc2cc(F)cc(F)c2)nc2cc(Cl)ccc12` [Compound 1b, 7-Chloro-2-((3,5-difluorophenyl)amino)quinazolin-4(3H)-one] as the compound, how does the “SI (selectivity index)” value [1, 18] read?
Answer: 74

Question: What about the IC50 ([1]; Vero cells) of the same compound?
Answer: 0.24 µM

Question: And the CC50 at 24 h [2]?
Answer: 18 µM

Question: With `CC(=O)N(c1cc(Cl)cc(Cl)c1)c1nc2cc(Cl)ccc2c(=O)[nH]1` [Compound 2a, N-(7-Dichloro-4-oxo-3,4-dihydroquinazolin-2-yl)-N-(3,5-dichlorophenyl)acetamide] as the compound, how does the “SI (selectivity index)” value [1] read?
Answer: 26

Question: What about the IC50 ([1]; Vero cells) of the same compound?
Answer: 0.33 µM

Question: What about the IC50 [5] of the same compound?
Answer: 0.54 µM

Question: What about the Cmax [6] of the same compound?
Answer: 1850 ng/mL

Question: What about the Tmax [6] of the same compound?
Answer: 4.67 h

Question: And the half-life [6]?
Answer: 4.95 h

Question: And the AUC(0-t) [6]?
Answer: 24300 ng·h/mL

Question: And the melting point?
Answer: 236 to 238 °C

Question: And the CC50 at 24 h [2]?
Answer: 9.39 µM

Question: And the IC50 [7]?
Answer: 15.2 µM

Question: And the CC50 at 24 h [8]?
Answer: < 10 µM

Question: And the CC50 [9]?
Answer: 7.6 µM

Question: With `CC(=O)N(c1cc(F)cc(F)c1)c1nc2cc(Cl)ccc2c(=O)[nH]1` [Compound 2b, N-(7-Chloro-4-oxo-3,4-dihydroquinazolin-2-yl)-N-(3,5-difluorophenyl)acetamide] as the compound, how does the IC50 ([1]; Vero cells) read?
Answer: 0.29 µM

Question: What about the IC50 [5] of the same compound?
Answer: 0.99 µM

Question: And the Cmax [6]?
Answer: 5560 ng/mL

Question: What about the Tmax [6] of the same compound?
Answer: 4 h

Question: What about the half-life [6] of the same compound?
Answer: 1.96 h

Question: And the AUC(0-t) [6]?
Answer: 41600 ng·h/mL

Question: What about the “Clinical signs: animals with liquid feces” value ([10]; 250 mg/kg group) of the same compound?
Answer: one animal

Question: What about the Body weight change ([10]; 250 mg/kg, day 4, Dunnett's test) of the same compound?
Answer: statistically significant reduction

Question: And the “Clinical signs: animals with liquid feces” value ([10]; 500 mg/kg group)?
Answer: two animals

Question: And the Body weight change ([10]; 500 mg/kg, days 4 and 8, Dunnett's test)?
Answer: statistically significant reduction

Question: And the “Gross observations of the organs” value ([10]; 250 and 500 mg/kg)?
Answer: did not reveal changes in any of the organs examined

Question: What about the Mortality ([10]; single oral dose 250 and 500 mg/kg, monitored 15 days) of the same compound?
Answer: no deaths; also recorded: no mortality; also recorded: no animals died

Question: And the Approximate lethal dose ([10]; single oral dose, male rats)?
Answer: greater than 500 mg/kg

Question: And the CC50 at 24 h [2]?
Answer: > 25 µM

Question: And the CC50 [11]?
Answer: 14.6 µM

Question: What about the IC50 [7] of the same compound?
Answer: 30 µM

Question: What about the CC50 at 24 h [12] of the same compound?
Answer: 17.9 µM

Question: What about the CC50 at 24 h [13] of the same compound?
Answer: 12.6 µM

Question: And the CC50 at 24 h [8]?
Answer: 22.7 µM

Question: For `CC(=O)N(c1cc(Cl)cc(Cl)c1)c1nc2cccc(O)c2c(=O)[nH]1` [Compound 2c, N-(3,5-Dichlorophenyl)-N-(5-hydroxy-4-oxo-3,4-dihydroquinazolin-2-yl)acetamide], which IC50 ([1]; Vero cells) is on record?
Answer: 0.11 µM

Question: And the Cmax [6]?
Answer: 1960 ng/mL

Question: What about the Tmax [6] of the same compound?
Answer: 3.33 h

Question: What about the half-life [6] of the same compound?
Answer: 6.69 h

Question: What about the AUC(0-t) [6] of the same compound?
Answer: 10800 ng·h/mL

Question: What about the CC50 at 24 h [2] of the same compound?
Answer: > 25 µM

Question: And the CC50 [11]?
Answer: 17.1 µM

Question: What about the IC50 [7] of the same compound?
Answer: > 50 µM

Question: And the CC50 at 24 h [12]?
Answer: 42.7 µM

Question: What about the CC50 at 24 h [13] of the same compound?
Answer: 13.7 µM

Question: And the CC50 at 24 h [8]?
Answer: 59.9 µM

Question: And the “Microsomal Stability (%) Rat” value [14]?
Answer: 57%

Question: What about the “Microsomal Stability (%) Human” value [15] of the same compound?
Answer: 10%

Question: For `O=c1[nH]c(Nc2cc(Cl)cc(Cl)c2)nc2cccc(O)c12` [Compound 5c, 2-((3,5-Dichlorophenyl)amino)-5-hydroxyquinazolin-4(3H)-one], which “SI (selectivity index)” value [1, 18] is on record?
Answer: > 168

Question: And the IC50 ([1]; Vero cells)?
Answer: 0.15 µM

Question: What about the melting point of the same compound?
Answer: > 300 °C

Question: And the CC50 at 24 h [2]?
Answer: > 25 µM

Question: Which “SI (selectivity index)” value [1, 18] does the source give for `CCC(=O)N(c1cc(Cl)cc(Cl)c1)c1nc2cc(Cl)ccc2c(=O)[nH]1` [Compound 6a, N-(7-Chloro-4-oxo-3,4-dihydroquinazolin-2-yl)-N-(3,5-dichlorophenyl)propionamide] here?
Answer: > 117

Question: What about the IC50 ([1]; Vero cells) of the same compound?
Answer: 0.21 µM

Question: And the melting point?
Answer: 223 to 225 °C

Question: What about the CC50 at 24 h [2] of the same compound?
Answer: > 25 µM

Question: Which IC50 ([1]; Vero cells) does the source give for `COC(=O)N(c1cc(Cl)cc(Cl)c1)c1nc2cc(Cl)ccc2c(=O)[nH]1` [Compound 6b, Methyl (7-Chloro-4-oxo-3,4-dihydroquinazolin-2-yl)(3,5-dichlorophenyl)carbamate] here?
Answer: 7.05 µM

Question: What about the melting point of the same compound?
Answer: 218 to 220 °C

Question: What about the CC50 at 24 h ([16]; uninfected Vero cells) of the same compound?
Answer: > 25 µM

Question: Which IC50 ([1]; Vero cells) does the source give for `CN(c1cc(Cl)cc(Cl)c1)c1nc2cc(Cl)ccc2c(=O)[nH]1` [Compound 6c, 7-Chloro-2-((3,5-dichlorophenyl)(methyl)amino)quinazolin-4(3H)-one] here?
Answer: 5.66 µM

Question: What about the melting point of the same compound?
Answer: 287 to 289 °C

Question: What about the CC50 at 24 h [2] of the same compound?
Answer: > 25 µM

Question: For `Cc1ccc(S(=O)(=O)N(c2cc(Cl)cc(Cl)c2)c2nc3cc(Cl)ccc3c(=O)[nH]2)cc1` [Compound 6d, N-(7-Chloro-4-oxo-3,4-dihydroquinazolin-2-yl)-N-(3,5-dichlorophenyl)-4-methylben-zenesulfonamide], which “SI (selectivity index)” value [1, 18] is on record?
Answer: > 44

Question: And the IC50 ([1]; Vero cells)?
Answer: 0.57 µM

Question: And the melting point?
Answer: 163 to 165 °C

Question: What about the CC50 at 24 h [2] of the same compound?
Answer: > 25 µM

Question: With `O=C(CO)N(c1cc(Cl)cc(Cl)c1)c1nc2cc(Cl)ccc2c(=O)[nH]1` [Compound 8, N-(7-Chloro-4-oxo-3,4-dihydroquinazolin-2-yl)-N-(3,5-dichlorophenyl)-2-hydroxy-acetamide] as the compound, how does the “SI (selectivity index)” value [1, 18] read?
Answer: > 10

Question: What about the IC50 ([1]; Vero cells) of the same compound?
Answer: 2.57 µM

Question: What about the melting point of the same compound?
Answer: 263 to 265 °C

Question: And the CC50 at 24 h [2]?
Answer: > 25 µM

Question: For `CCC(CC)COC(=O)[C@H](C)N[P@](=O)(OC[C@H]1O[C@@](C#N)(c2ccc3c(N)ncnn23)[C@H](O)[C@@H]1O)Oc1ccccc1` [Remdesivir, reference compound], which “SI (selectivity index)” value [1] is on record?
Answer: > 14

Question: What about the IC50 ([1]; Vero cells) of the same compound?
Answer: 3.47 µM

Question: What about the CC50 at 24 h [16] of the same compound?
Answer: > 50 µM

Question: For `O=C1CC2(CCCC2)CC(=O)N1CCCCN1CCN(c2ncccn2)CC1` [buspirone, reference compound], which “Microsomal Stability (%) Rat” value [14] is on record?
Answer: < 5%

Question: What about the “Microsomal Stability (%) Human” value [15] of the same compound?
Answer: < 10%

Question: Which “Incidence of hospitalization or death at day 29” value ([17]; 48 out of 709 patients) does the source give for `CC(C)C(=O)OC[C@H]1O[C@@H](n2ccc(NO)nc2=O)[C@H](O)[C@@H]1O` [molnupiravir] here?
Answer: 6.8%

Question: And the “Reduction in COVID-19-related hospitalization or death” value ([17]; versus placebo)?
Answer: 30%
